Assay in all cases: DTP human tumour cell line panel, 48 h
Assay [1] concerns UACC-62 melanoma.
In assay [2] the test system is HT29 colon.
Assay [3] relates to NCI/ADR-RES ovarian.
Assay [4] deals with SK-MEL-5 melanoma.
The subject of assay [5] is NCI-H226 lung.
Assay [6] concerns MDA-N.
Assay [7] has as its system HOP-92 NSCLC.
The test system of assay [8] is A498 renal.
Assay [9] has as its system NCI-H460 lung.
The test system of assay [10] is MALME-3M melanoma.

Values joined by “and” are separate entries in the source; they are usually repeats but may differ in a detail not shown here. Equal entries are not always repeated.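 Protocol summary: plate cells (96-well), add compound at 5 concentrations, incubate 48 h, interpolate endpoints linearly. GI50: concentration for 50% inhibition of growth. TGI is the concentration that stops growth completely.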 Bounds are passed on as bounds.

What is called TGI is the concentration giving total growth inhibition. Lower therefore signals more potent growth arrest. On to `CCOC(=O)C(/C=N/C(N)=S)=C(/O)c1ccccc1`, for which the TGI in [1], in [2], in assay [3], in assay [4], in assay [5] and in assay [6] was over 100 µM each time. Further, the total growth inhibition concentration (TGI) in assay [7], in [8] and in assay [9] was over 100 µM each time.

For `CCOC(=O)C(C(=O)OCC)C(=S)NC1OC(COC(C)=O)C(OC(C)=O)C(OC(C)=O)C1OC(C)=O` (stereo not drawn), the TGI in assay [1], in assay [10], in assay [2], in [3], in assay [4] and in assay [5] was over 100 µM in each case. For the same compound, the TGI in assay [6], in assay [7], in [8] and in assay [9] was over 100 µM throughout.

For `CN1CCN2CCN(C)CCN(CC1)CC2`, the TGI in [1], in assay [2], in assay [3], in [4], in assay [5] and in assay [6] was over 100 µM each time. Further, the total growth inhibition concentration (TGI) in assay [7], in assay [8] and in assay [9] was over 100 µM in each case.

Regarding `O=C(O)Cc1ccc(-n2nnc3c(=O)[nH][nH]c(=O)c32)cc1`, the total growth inhibition concentration (TGI) in [10], in assay [2], in [3], in [4], in assay [6] and in [7] was over 100 µM throughout. This compound showed a total growth inhibition concentration (TGI) in assay [9] of over 100 µM.

In the case of `COc1ccc(-c2c3c(n(C4OC(COC(C)=O)C(OC(C)=O)C(OC(C)=O)C4OC(C)=O)c(=S)c2C#N)CCCC3)cc1` (stereo not drawn), the TGI in assay [1], in assay [10], in assay [2], in assay [3], in [4] and in assay [5] was over 100 µM in each case. For the same compound, the results for the TGI in assay [6], in [8] and in assay [9] were over 100 µM, 90 µM and over 100 µM, respectively.

As for `O=c1[nH]nc(-c2ccccc2)c2[nH]c3c(c12)CCCc1ccccc1-3`, the TGI in assay [1] stood at 25.1 µM; in [10], 30.9 µM; in assay [2], 24.3 µM; in [3] it was 32.5 µM; in assay [4], 26.5 µM; in assay [5], 37.5 µM. Also, the TGI in assay [6] turned out to be 29.4 µM; in assay [7] it was 54.8 µM; in [9], 60 µM.

Consider `Cc1cccc2c1CC1(Cc3c(C)cccc3C1=O)C2=O`, for which the TGI in assay [10], in assay [2], in assay [3], in [4], in assay [6] and in assay [7] was over 100 µM each time. In addition, the TGI in [8] and in [9] was over 100 µM throughout.

One may read the GI50 as the concentration that inhibits growth by half. Regarding `COC(=O)/C=C/c1cc(OC)c2c(c1)C(C(=O)OC)C(c1ccc(O)c(OC)c1)O2` (stereo not drawn), the GI50 in assay [1] was 2.42 µM and 3.37 µM and 1.57 µM; in assay [2], 16 µM and 9.17 µM and 3.77 µM; in [3] it was 3.4 µM and 2.76 µM and 1.68 µM; in assay [5], 32.9 µM and 10.3 µM and 4.53 µM; in [6], 0.204 µM; in assay [7], > 37.2 µM and 12.4 µM and 16.9 µM. Besides, the GI50 in assay [9] is 13.9 µM and 7.71 µM and 5.24 µM. The TGI was > 56.1 µM and 36.4 µM and 32.9 µM in assay [1]; > 100 µM and 37.4 µM in [10]; 37.8 µM and 26.8 µM and 14.4 µM in assay [2]; > 33.9 µM and 26.6 µM and 12.9 µM in [3]; > 100 µM and > 88.2 µM and 12.7 µM in assay [5]; 29.1 µM in assay [6]. The TGI in [7] was over 100 µM; in assay [8], > 65.4 µM and > 100 µM and 77.3 µM; in [9], > 100 µM and > 47.9 µM and 27.8 µM.

Turning to `CC(C)(C)OC(=O)/C=C/[C@@H](CCC(=O)/C=C/[C@H](/C=C\CCCC(=O)O)NC1(c2ccccc2)c2ccccc2-c2ccccc21)O[Si](C)(C)C(C)(C)C`, the TGI was 29.6 µM in assay [1]; 30.1 µM in assay [2]; 32.6 µM in assay [3]; 36.8 µM in assay [4]; 40.3 µM in assay [5]; 47.2 µM in assay [6]. The total growth inhibition concentration (TGI) in assay [7] is 16 µM; in assay [8], 34 µM; in assay [9] it was 34.7 µM.

With `COc1ccc(/C=C/C(=O)N[C@@H]2C(=O)N3[C@@H]2SC(C)(C)[C@@H]3C(=O)O)cc1OC`, the TGI in [1], in [2], in [3], in [4], in assay [5] and in [6] was over 100 µM in each case. The concentration for total growth inhibition (TGI) in assay [7], in [8] and in assay [9] was over 100 µM each time.

Take `O=c1oc2ccc([N+](=O)[O-])cc2cc1-c1csc(-c2ccccc2)n1`: the total growth inhibition concentration (TGI) in [1], in assay [10], in assay [2], in assay [3], in [4] and in assay [5] was over 100 µM throughout. For the same compound, the TGI in assay [6], in assay [7] and in assay [9] was over 100 µM in each case.

On to `CCOc1ccnc2c(OC)c(C)c3nc4ccccc4nc3c12`, for which the total growth inhibition concentration (TGI) in assay [10], in assay [2], in [3], in [4], in assay [5] and in assay [6] was over 100 µM each time. The total growth inhibition concentration (TGI) in [7], in assay [8] and in assay [9] was over 100 µM throughout.

As for `CSc1c(C#N)c(=O)n(N)c2n[nH]c(C)c12`, the TGI in assay [1], in [10], in assay [2], in assay [3], in assay [4] and in assay [5] was over 100 µM in each case. The TGI in [6], in assay [8] and in [9] was over 100 µM throughout.

As to `COc1ccc(C(CC(=O)c2ccc(O)cc2)C(C(=O)c2ccc(O)cc2)C(c2ccc(OC)cc2)C2C(=O)NC(=S)NC2=O)cc1` (stereo not drawn), the TGI in assay [1] was 36.1 µM; in [2], over 100 µM; in [3] it was over 100 µM; in [4], 42.5 µM; in [5] it was 40 µM; in assay [6], 41.5 µM. The results for the TGI in assay [7], in [8] and in assay [9] were over 100 µM, over 100 µM and 39.5 µM, respectively.

`CC(=O)Oc1ccc(C2SCc3nc4ccccc4n32)cc1` (stereo not drawn): the TGI in assay [1] was over 100 µM; in assay [10], over 100 µM; in assay [2], over 100 µM; in assay [3], 51.6 µM; in assay [4], over 100 µM; in assay [6] it was over 63.8 µM. Also, the results for the TGI in assay [7], in assay [8] and in assay [9] were over 100 µM, 73.8 µM and over 100 µM, respectively.

`COc1ccc(/C=C2\NC(=S)N(CN3CCOCC3)C2=O)cc1`: the total growth inhibition concentration (TGI) in [1], in [10], in assay [2], in [3], in [4] and in assay [5] was over 100 µM in each case. In addition, the total growth inhibition concentration (TGI) in [6], in [7] and in assay [8] was over 100 µM each time.

With `COc1cc(CNC(=O)CCCCCCCCCCSC#N)ccc1O`, the TGI was over 100 µM in [10]; 87.2 µM in assay [2]; 59.7 µM in assay [3]; 19.4 µM in [4]; 37.8 µM in assay [5]; 31.3 µM in assay [6]. Moreover, the TGI in assay [7] is 34.8 µM; in assay [8], 30.3 µM; in assay [9], 38.2 µM.

Take `Cc1cc(NS(=O)(=O)c2ccc(N=Nc3c(Nc4ccccc4)nn(-c4ccc(S(=O)(=O)Nc5ccncn5)cc4)c3C)cc2)no1`: the TGI in assay [1], in assay [10], in [2], in assay [3], in assay [4] and in [5] was over 100 µM each time. The TGI in assay [6] and in assay [7] was over 100 µM in each case.

On to `COC(=O)CC(c1ccccc1)C(C#N)(OP1(=O)OC(c2ccccc2)C(C)N1C)c1ccccc1` (stereo not drawn), for which the TGI in assay [1] was over 100 µM; in [10], over 100 µM; in [2] it was over 100 µM; in assay [3], over 100 µM; in assay [4] it was 39.8 µM; in assay [6] it was over 100 µM. The TGI in assay [7], in [8] and in assay [9] was over 100 µM throughout.

As to `CC1(C)CC(=O)C(/C=N/c2nc(-c3cccc([N+](=O)[O-])c3)cs2)=C(O)C1`, the TGI in assay [1] amounted to 42.2 µM; in assay [2] it was 30.7 µM; in assay [3], 39.2 µM; in [5], 36.5 µM; in assay [6], 36.5 µM; in assay [7] it was 39.6 µM. In addition, the concentration for total growth inhibition (TGI) in assay [8] came out at 30.5 µM; in assay [9], 27.8 µM.

Take `FC1(F)SC2CCCCCCCCCCC2C1(F)F` (stereo not drawn): the TGI in [1] was over 100 µM; in assay [10], 59.6 µM; in [2] it was 96.5 µM; in assay [3] it was over 100 µM; in [4], over 100 µM; in [5], over 100 µM. For the same compound, the TGI was over 100 µM in assay [6] and 51.6 µM in assay [7].

As to `COC(=O)c1cc(OCc2cc(OCc3ccc(Br)cc3)cc(OCc3ccc(Br)cc3)c2)cc(OCc2cc(OCc3ccc(Br)cc3)cc(OCc3ccc(Br)cc3)c2)c1`, the TGI in assay [1], in assay [10], in [3], in assay [4], in [5] and in assay [6] was over 100 µM each time. The concentration for total growth inhibition (TGI) in assay [7], in [8] and in assay [9] was over 100 µM in each case.

On to `Cc1cccc(C)c1NC(=O)/C(CC(=O)CC(c1ccccc1)c1c(O)c2ccccc2oc1=O)=N/O` (stereo not drawn), for which the total growth inhibition concentration (TGI) in assay [1], in assay [2], in [3], in assay [4], in assay [5] and in [6] was over 100 µM throughout. Moreover, the TGI in assay [7] and in assay [9] was over 100 µM in each case.

As for `COc1ccccc1N1C(=O)/C(=C\c2ccccc2)SC1c1cc(OC)c(OC)c(OC)c1` (stereo not drawn), the TGI in [1], in assay [10], in assay [2], in assay [3], in [4] and in assay [5] was over 100 µM throughout. Moreover, the figures for the TGI in assay [6], in [7] and in [8] were 48.6 µM, over 100 µM and over 100 µM, respectively.

As for `C[C@H](OC(=O)/C=C/c1ccc(O)c(O)c1)[C@H](C)OC(=O)/C=C/c1ccc(O)c(O)c1`, the TGI is 12.6 µM in assay [1]; 31.9 µM in [10]; over 100 µM in assay [2]; 63.1 µM in [3]; 21.5 µM in assay [4]; 18.4 µM in assay [6]. In addition, the TGI in [7] is 38.2 µM; in [8], 51.7 µM; in [9], over 100 µM.

Take `COC(=O)C1=C(C(=O)OC)C2CCC1CC2=O` (stereo not drawn): the total growth inhibition concentration (TGI) in assay [1], in assay [10], in assay [2], in assay [3], in [4] and in assay [5] was over 100 µM each time. Moreover, the TGI in assay [6], in assay [8] and in assay [9] was over 100 µM in each case.

Turning to `Cc1c(OCc2cccc3ccccc23)ccc2c(=O)cc(S)oc12`, the concentration for total growth inhibition (TGI) in [1] is 73.3 µM; in assay [2], over 100 µM; in assay [3], over 100 µM; in [4] it was over 100 µM; in assay [5], over 100 µM; in assay [6], over 100 µM. Also, the TGI in assay [7] is 67.1 µM; in [8], over 100 µM; in assay [9], over 100 µM.

On to `O=C(CCCN1CCC(Nc2ccc(F)cc2)(c2nnnn2C2CCCCC2)CC1)c1ccc(F)cc1`, for which the concentration for total growth inhibition (TGI) was 11.2 µM in assay [1]; over 100 µM in assay [10]; over 100 µM in assay [2]; 46.9 µM in assay [3]; 42 µM in [4]; 36 µM in [5]. Moreover, the concentration for total growth inhibition (TGI) in assay [6] is 30.7 µM; in assay [8], 12.5 µM; in assay [9] it was over 100 µM.

(Values after PubChem BioAssay (NCI).)
